According to patent US20130005743A1, “New positive allosteric modulators of nicotinic acetylcholine receptor” (H. Lundbeck A/S, priority 2011, published 2013):

Target: T1, human α7 receptor (Homo sapiens, UniProt P36544)
T1 construct: host or cells: rat GH4C1 cell line
Assay: α7 NNR flux assay (FDSS Ca assay, positive allosteric modulation of acetylcholine response)
Format: cell-based
Settings: human α7 receptor stably expressed in rat GH4C1 cells; acetylcholine 20 μM; % modulation relative to PNU-120596 set to 100%
Description: The nicotinic acetylcholine receptor α7 is a calcium-permeable ion channel, whose activity can be measured by over expression in mammalian cells or oocytes. In this version of the assay, the human α7 receptor is stably expressed in the rat GH4C1 cell line. The assay was used to identify positive allosteric modulators (PAMs) of the α7 receptor. Activation of the channel was measured by loading cells with the calcium-sensitive fluorescent dye. Calcium-4 (Assay kit from Molecular Devices), and then measuring real-time changes, in fluorescence upon treatment with test compounds.
The cell line ChanClone GH4C1-nAChRalpha7 from Genionics was seeded from frozen stock in 384-well plates in culture media 2-3 days before experiment to form an approximately 80% confluent layer on the day of experiment.
The cell culture were split into “22.5 cm×22.5 cm”-plates with approximately 100×10^3 cells/cm^2. After four days incubation in a humidified incubator at 37° C. and 5% CO2, it had grown to an 80-90% confluent layer, and the cells were harvested.
Two or three days before the experiment the cells were seeded in 384 well plates from Greiner bio-one (781946, CELLCOAT, Poly-D-Lysine, black, μClear).
The cells were seeded in 384 well plates with 30 μL/well (30000 cells/well) while stirring the cell suspension or otherwise preventing the cells from precipitating.
The loading buffer was 5% v/v Calcium-4 Kit and 2.5 mM Probenecid in assay buffer.
Culture media was removed from the cell plates and 20 μL loading buffer was added in each well. The cell plates were placed in trays and incubated 90 minutes in the incubator (37° C.). Thereafter the plates were incubated 30 minutes at room temperature, still protected from light.
The assay buffer was HBSS with 20 mM HEPES, pH 7.4 and 3 mM CaCl2.
[…] 10 mM compound solution in DMSO was diluted in 50 μL assay buffer. The final test concentrations in the cell plates were 20-10-5-2.5-1.25-0.625-0.312-0.156-0.078-0.039 μM. Assay buffer and 3 μM PNU-120596 were used for control. The agonist acetylcholine was added to a final concentration of 20 μM (˜EC100). In the FDSS7000 the Ex480-Em540 was measured with 1 second intervals. The baseline was made of 5 frames before addition of test compounds, and 95 frames more were made before addition of acetylcholine. The measurement stopped 30 frames after the 2nd addition. Raw data for each well were collected as “the maximum fluorescence count” in the interval 100-131 seconds and as “the average fluorescence count” in the interval 96-100 seconds. The positive allosteric modulation in the 2nd addition was the enhancement of agonist response with test compound compared to agonist alone.
Results were calculated as % modulation of test compound compared to the reference PNU-120596 set to 100%.

T1 sequence (P36544 23-502): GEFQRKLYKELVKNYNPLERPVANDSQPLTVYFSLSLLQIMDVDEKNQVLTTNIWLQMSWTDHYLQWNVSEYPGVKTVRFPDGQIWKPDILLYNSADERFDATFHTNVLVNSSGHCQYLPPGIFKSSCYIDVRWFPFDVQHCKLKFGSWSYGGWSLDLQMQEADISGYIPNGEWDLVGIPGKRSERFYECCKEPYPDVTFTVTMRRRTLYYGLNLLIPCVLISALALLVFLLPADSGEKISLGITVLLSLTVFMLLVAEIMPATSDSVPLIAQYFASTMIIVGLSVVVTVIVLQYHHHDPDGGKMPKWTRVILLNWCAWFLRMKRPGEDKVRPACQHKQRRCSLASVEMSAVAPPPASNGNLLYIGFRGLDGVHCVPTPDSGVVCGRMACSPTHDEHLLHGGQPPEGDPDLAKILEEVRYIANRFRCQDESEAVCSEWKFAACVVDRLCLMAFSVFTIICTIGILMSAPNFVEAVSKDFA

SMILES	EC50
Cc1cc(C(=O)Nc2c(C)ccnc2C)c2c(C)nn(-c3ccccc3)c2n1 [Compound 2, 3,6-Dimethyl-1-phenyl-1H-pyrazolo[3,4-b]pyridine-4-carboxylic acid (2,4-dimethyl-pyridin-3-yl)-amide]	3.6 µM
Cc1cc(C(=O)Nc2c(C)cncc2C)c2c(C)nn(-c3ccccc3)c2n1 [Compound 3, 3,6-Dimethyl-1-phenyl-1H-pyrazolo[3,4-b]pyridine-4-carboxylic acid (3,5-dimethyl-pyridin-4-yl)-amide]	4.1 µM
COc1ccccc1-n1nc(C)c2c(C(=O)Nc3c(C)ccnc3C)cc(C)nc21 [Compound 4, 1-(2-Methoxy-phenyl)-3,6-dimethyl-1H-pyrazolo[3,4-b]pyridine-4-carboxylic acid (2,4-dimethyl-pyridin-3-yl)-amide]	7.1 µM
COc1ccc(-n2nc(C)c3c(C(=O)Nc4cccnc4C)cc(C)nc32)cc1 [Compound 5, 1-(4-Methoxy-phenyl)-3,6-dimethyl-1H-pyrazolo[3,4-b]pyridine-4-carboxylic acid (2-methyl-pyridin-3-yl)-amide]	3.3 µM
Cc1ccc(-n2nc(C)c3c(C(=O)Nc4c(C)ccnc4C)cc(C)nc32)cc1 [Compound 6, 3,6-Dimethyl-1-p-tolyl-1H-pyrazolo[3,4-b]pyridine-4-carboxylic acid (2,4-dimethyl-pyridin-3-yl)-amide]	2.5 µM
COc1ccc(-n2nc(C)c3c(C(=O)Nc4c(C)ccnc4OC)cc(C)nc32)cc1 [Compound 7, 1-(4-Methoxy-phenyl)-3,6-dimethyl-1H-pyrazolo[3,4-b]pyridine-4-carboxylic acid (2-methoxy-4-methyl-pyridin-3-yl)-amide]	2.2 µM
COc1ccc(-n2nc(C)c3c(C(=O)Nc4cnccc4C)cc(C)nc32)cc1 [Compound 8, 1-(4-Methoxy-phenyl)-3,6-dimethyl-1H-pyrazolo[3,4-b]pyridine-4-carboxylic acid (4-methyl-pyridin-3-yl)-amide]	5.1 µM
COc1cccc(-n2nc(C)c3c(C(=O)Nc4c(C)ccnc4C)cc(C)nc32)c1 [Compound 9, 1-(3-Methoxy-phenyl)-3,6-dimethyl-1H-pyrazolo[3,4-b]pyridine-4-carboxylic acid (2,4-dimethyl-pyridin-3-yl)-amide]	4 µM
Cc1ccc(-n2nc(C)c3c(C(=O)Nc4c(C)ccnc4C)cc(C)nc32)cn1 [Compound 10, 3,6-Dimethyl-1-(6-methyl-pyridin-3-yl)-1H-pyrazolo[3,4-b]pyridine-4-carboxylic acid (2,4-dimethyl-pyridin-3-yl)-amide]	7.2 µM
COc1ccc(-n2ncc3c(C(=O)Nc4c(C)ccnc4C)cc(C)nc32)cc1 [Compound 11, 1-(4-Methoxy-phenyl)-6-methyl-1H-pyrazolo[3,4-b]pyridine-4-carboxylic acid (2,4-dimethyl-pyridin-3-yl)-amide]	2.8 µM
COc1ccc(-n2nc(C)c3c(C(=O)Nc4c(C)ncnc4C)cc(C)nc32)cc1 [Compound 12, 1-(4-Methoxy-phenyl)-3,6-dimethyl-1H-pyrazolo[3,4-b]pyridine-4-carboxylic acid (4,6-dimethyl-pyrimidin-5-yl)-amide]	4.9 µM
Cc1cc(C(=O)Nc2c(C)ccnc2C)c2c(C)nn(-c3ccc(F)cc3)c2n1 [Compound 13, 1-(4-Fluoro-phenyl)-3,6-dimethyl-1H-pyrazolo[3,4-b]pyridine-4-carboxylic acid (2,4-dimethyl-pyridin-3-yl)-amide]	7.8 µM
Cc1cc(C(=O)Nc2c(C)ccnc2C)c2c(C)nn(-c3ccc(C#N)cc3)c2n1 [Compound 14, 1-(4-Cyano-phenyl)-3,6-dimethyl-1H-pyrazolo[3,4-b]pyridine-4-carboxylic acid (2,4-dimethyl-pyridin-3-yl)-amide]	6.3 µM
COc1ccc(-n2nc(C)c3c(C(=O)Nc4c(C)ccnc4C)ccnc32)cc1 [Compound 15, 1-(4-Methoxy-phenyl)-3-methyl-1H-pyrazolo[3,4-b]pyridine-4-carboxylic acid (2,4-dimethyl-pyridin-3-yl)-amide]	6 µM
COc1ccc(-n2nc(C)c3c(C(=O)Nc4c(C)ccnc4C)cc(C)nc32)cn1 [Compound 16, 1-(6-Methoxy-pyridin-3-yl)-3,6-dimethyl-1H-pyrazolo[3,4-b]pyridine-4-carboxylic acid (2,4-dimethyl-pyridin-3-yl)-amide]	5.5 µM
Cc1cc(C(=O)Nc2c(C)ccnc2C)c2c(C)nn(-c3ccc(OC(F)(F)F)cc3)c2n1 [Compound 17, 3,6-Dimethyl-1-(4-trifluoromethoxy-phenyl)-1H-pyrazolo[3,4-b]pyridine-4-carboxylic acid (2,4-dimethyl-pyridin-3-yl)-amide]	11 µM
COc1ccc(-n2nc(C)c3c(C(=O)Nc4c(C)cc(C)nc4C)cc(C)nc32)cc1 [Compound 18, 1-(4-Methoxy-phenyl)-3,6-dimethyl-1H-pyrazolo[3,4-b]pyridine-4-carboxylic acid (2,4,6-trimethyl-pyridin-3-yl)-amide]	6.5 µM
Cc1cc(C(=O)Nc2c(C)ccnc2C)c2c(C)nn(-c3ccc(OC(F)F)cc3)c2n1 [Compound 19, 1-(4-Difluoromethoxy-phenyl)-3,6-dimethyl-1H-pyrazolo[3,4-b]pyridine-4-carboxylic acid (2,4-dimethyl-pyridin-3-yl)-amide]	3.3 µM
COc1ccc(-n2nc(C)c3c(C(=O)Nc4cncnc4C)cc(C)nc32)cc1 [Compound 20, 1-(4-Methoxy-phenyl)-3,6-dimethyl-1H-pyrazolo[3,4-b]pyridine-4-carboxylic acid (4-methyl-pyrimidin-5-yl)-amide]	4.6 µM
Cc1cc(C(=O)Nc2c(C)ccnc2C)c2c(C)nn(-c3ccc(N(C)C)cc3)c2n1 [Compound 23, 1-(4-Dimethylamino-phenyl)-3,6-dimethyl-1H-pyrazolo[3,4-b]pyridine-4-carboxylic acid (2,4-dimethyl-pyridin-3-yl)-amide]	3.6 µM
Cc1cc(C(=O)Nc2c(C)ccnc2C)c2c(C)nn(-c3ccsc3)c2n1 [Compound 25, 3,6-Dimethyl-1-thiophen-3-yl-1H-pyrazolo[3,4-b]pyridine-4-carboxylic acid (2,4-dimethyl-pyridin-3-yl)-amide]	7.2 µM
Cc1cc(C(=O)Nc2c(C)ccnc2C)c2c(C)nn(-c3cncnc3)c2n1 [Compound 26, 3,6-Dimethyl-1-pyrimidin-5-yl-1H-pyrazolo[3,4-b]pyridine-4-carboxylic acid (2,4-dimethyl-pyridin-3-yl)-amide]	11 µM
COc1ccnc(C)c1NC(=O)c1cc(C)nc2c1c(C)nn2-c1ccccc1 [Compound 28, 3,6-Dimethyl-1-phenyl-1H-pyrazolo[3,4-b]pyridine-4-carboxylic acid (4-methoxy-2-methyl-pyridin-3-yl)-amide]	6.5 µM
COc1ccc(-n2nc(C)c3c(C(=O)Nc4cnccc4N(C)C)cc(C)nc32)cc1 [Compound 30, 1-(4-Methoxy-phenyl)-3,6-dimethyl-1H-pyrazolo[3,4-b]pyridine-4-carboxylic acid (4-dimethylamino-pyridin-3-yl)-amide]	2.7 µM
COc1ccc(-n2nc(C)c3c(C(=O)Nc4cnc(C)cc4C)cc(C)nc32)cc1 [Compound 33, 1-(4-Methoxy-phenyl)-3,6-dimethyl-1H-pyrazolo[3,4-b]pyridine-4-carboxylic acid (4,6-dimethyl-pyridin-3-yl)-amide]	8.9 µM
Cc1cc(C(=O)Nc2c(C)ccnc2C)c2c(C)nn(-c3ccc(O)cc3)c2n1 [Compound 37, 1-(4-Hydroxy-phenyl)-3,6-dimethyl-1H-pyrazolo[3,4-b]pyridine-4-carboxylic acid (2,4-dimethyl-pyridin-3-yl)-amide]	9.5 µM
